According to US20230096766A1, “AMINO ACID HAVING FUNCTIONAL GROUP CAPABLE OF INTERMOLECULAR HYDROGEN BONDING, PEPTIDE COMPOUND CONTAINING SAME AND METHOD FOR PRODUCTION THEREOF” (Chugai Seiyaku Kabushiki Kaisha, priority 2018, published 2023):
*1 amine or outer side, *2 acyl side, *3 side chain or, on linkers, in order; H or OH if unused. Where a SMILES comes first, the peptide text is derived from it. Bridges are numbered along the chain shown (N, C = ends). [ ]: non-standard residue; d: D form. The star is where a group is joined. hPhe(3-OMe,4-CONHMe) = CNC(=O)c1ccc(CC[C@H](N)C(=O)O)cc1OC; Tyr(3-F) = N[C@@H](Cc1ccc(O)c(F)c1)C(=O)O; NMehPhe = CN[C@@H](CCc1ccccc1)C(=O)O; NMeF = CN[C@@H](Cc1ccccc1)C(=O)O; NMeGABA = CN(CCCC(=O)[*:2])[*:1]; CH2CH(OH)CF3 = OC(C*)C(F)(F)F; NMeL = CN[C@@H](CC(C)C)C(=O)O; NMeV = CN[C@H](C(=O)O)C(C)C; NMeAbu = CC[C@H](NC)C(=O)O; NMeA = CN[C@@H](C)C(=O)O; Piperidide = C1CCN(*)CC1; X8 = C1COC[C@@H](C*)N1; Me2NCH2CH2 = CN(C)CC*; NBuGly = CCCCNCC(=O)O; Propyl(3-OH) = OCCC*; Ethyl(2-OH) = OCC*; Sar = CNCC(=O)O; tBu = CC(C)(C)*

Test: in vitro
Conditions: human

Structure (SMILES) | Papp (Caco-2, Caco-2 (cm/sec)) [×10⁻⁶ cm/s] | other results
CCCCN1CC(=O)N(C)[C@@H](CC(C)C)C(=O)N[C@@H](COC(C)(C)C)C(=O)N(C)[C@@H](Cc2ccccc2)C(=O)N(C)[C@@H](C(C)C)C(=O)N[C@H](C(=O)N2CCCCC2)CC(=O)N[C@H](C(C)C)C(=O)N(C)[C@@H](Cc2ccccc2)C(=O)N[C@@H](COCCN(C)C)C(=O)N(C)[C@@H](CC(C)C)C(=O)N[C@@H]([C@@H](C)O)C1=O [pd53] ([dV][NMeF]S(Me2NCH2CH2)[NMeL]T[NBuGly][NMeL]S(tBu)[NMeF][NMeV]D-Piperidide; lactam N-11) |  | Papp (Caco-2, Caco-2): 0.14 ×10⁻⁶ cm/s
CC[C@H](C)[C@@H]1NC(=O)[C@H](CC(C)C)N(C)C(=O)CCCN(C)C(=O)C[C@@H](C(=O)N2CCCCC2)NC(=O)[C@H](CC(C)C)N(C)C(=O)[C@H](CC(C)C)N(C)C(=O)[C@H]([C@@H](C)O)NC(=O)[C@H](CC(C)C)N(C)C(=O)[C@H](COCCO)NC(=O)[C@H](CCc2ccccc2)N(C)C(=O)[C@H](CCc2ccccc2)N(C)C1=O [Compound A04] ([NMeGABA][NMeL]I[NMehPhe][NMehPhe]S(Ethyl(2-OH))[NMeL]T[NMeL][NMeL]D-Piperidide; lactam N-11) | 0.41 | 
CCCCN1CC(=O)N(C)[C@@H](Cc2ccccc2)C(=O)N(C)[C@@H](CC(C)C)C(=O)N[C@@H](CC(C)C)C(=O)N(C)[C@@H](CC(C)C)C(=O)N[C@H](C(=O)N2CCCCC2)CC(=O)N(C)CC(=O)N(C)[C@@H](CC)C(=O)N[C@@H](C(C)C)C(=O)N(C)[C@@H](CC)C(=O)N[C@@H](COC[C@@H]2COCCN2)C1=O [AP247] ([Sar][NMeAbu]V[NMeAbu]S(X8)[NBuGly][NMeF][NMeL]L[NMeL]D-Piperidide; lactam N-11) | 0.69 | 
CC(C)C[C@@H]1NC(=O)[C@H](Cc2ccccc2)N(C)C(=O)[C@H](COC(C)(C)C)NC(=O)[C@H](Cc2ccccc2)N(C)C(=O)[C@H](Cc2ccccc2)N(C)C(=O)[C@H](CC(C)C)N(C)C(=O)[C@@H](CC(C)C)NC(=O)C[C@@H](C(=O)N2CCCCC2)NC(=O)[C@H](Cc2ccccc2)N(C)C(=O)[C@H]([C@@H](C)O)NC(=O)[C@H](CC(C)C)N(C)C1=O [pd243] ([dL][NMeL][NMeF][NMeF]S(tBu)[NMeF]L[NMeL]T[NMeF]D-Piperidide; lactam N-11) |  | Papp (Caco-2, Caco-2 (cm/sec) Papp): 0.057 ×10⁻⁶ cm/s
CC(C)C[C@@H]1NC(=O)[C@H](Cc2ccccc2)N(C)C(=O)[C@H](COC(C)(C)C)NC(=O)[C@H](Cc2ccccc2)N(C)C(=O)[C@H](C)N(C)C(=O)[C@H](CC(C)C)N(C)C(=O)[C@@H](C)NC(=O)C[C@@H](C(=O)N2CCCCC2)NC(=O)[C@H](Cc2ccccc2)N(C)C(=O)[C@H]([C@@H](C)O)NC(=O)[C@H](CC(C)C)N(C)C1=O [pd220] ([dA][NMeL][NMeA][NMeF]S(tBu)[NMeF]L[NMeL]T[NMeF]D-Piperidide; lactam N-11) | 1.1 | 
CCCCN1CC(=O)N(C)[C@@H](Cc2ccccc2)C(=O)N(C)[C@@H](CC(C)C)C(=O)N[C@@H](COCC(O)C(F)(F)F)C(=O)N(C)[C@@H](CC(C)C)C(=O)N[C@H](C(=O)N2CCCCC2)CC(=O)N(C)CC(=O)N(C)[C@@H](Cc2ccccc2)C(=O)N[C@@H]([C@@H](C)CC)C(=O)N(C)[C@@H](CC(C)C)C(=O)N[C@@H]([C@@H](C)O)C1=O (stereo partly drawn) [Compound C07] ([Sar][NMeF]I[NMeL]T[NBuGly][NMeF][NMeL]S(CH2CH(OH)CF3)[NMeL]D-Piperidide; lactam N-11) |  | Papp (Caco-2, Caco-2 (membrane permeability)): 0.45 ×10⁻⁶ cm/s
CNC(=O)c1ccc(CC[C@@H]2NC(=O)[C@H](CC(C)C)N(C)C(=O)CCCN(C)C(=O)C[C@@H](C(=O)N3CCCCC3)NC(=O)[C@H](CC(C)C)N(C)C(=O)[C@H](CC(C)C)N(C)C(=O)[C@H]([C@@H](C)O)NC(=O)[C@H](CC(C)C)N(C)C(=O)[C@H](COC(C)(C)C)NC(=O)[C@H](Cc3ccccc3)N(C)C(=O)[C@H](CC(C)C)N(C)C2=O)cc1OC [AP203] ([NMeGABA][NMeL][hPhe(3-OMe,4-CONHMe)][NMeL][NMeF]S(tBu)[NMeL]T[NMeL][NMeL]D-Piperidide; lactam N-11) | 0.41 | 
CC(C)C[C@H]1C(=O)N[C@H](C(=O)N2CCCCC2)CC(=O)N(C)CCCC(=O)N(C)[C@@H](CC(C)C)C(=O)N[C@@H](Cc2ccc(O)c(F)c2)C(=O)N(C)[C@@H](CC(C)C)C(=O)N(C)[C@@H](Cc2ccccc2)C(=O)N[C@@H](COC(C)(C)C)C(=O)N(C)[C@@H](CC(C)C)C(=O)N[C@@H]([C@@H](C)O)C(=O)N(C)CC(=O)N1C [pd114] ([NMeGABA][NMeL][Tyr(3-F)][NMeL][NMeF]S(tBu)[NMeL]T[Sar][NMeL]D-Piperidide; lactam N-11) | 0.17 | 
CCCCN1CC(=O)N(C)[C@@H](Cc2ccccc2)C(=O)N[C@@H](COCCCO)C(=O)N(C)[C@@H](CC(C)C)C(=O)N[C@@H]([C@@H](C)O)C(=O)N(CCCC)CC(=O)N(C)[C@@H](Cc2ccccc2)C(=O)N(C)[C@@H](C(C)C)C(=O)N[C@@H](COC(C)(C)C)C(=O)N(C)[C@@H](CC(C)C)C(=O)N[C@H](C(=O)N2CCCCC2)CC1=O [AP95] ([NBuGly][NMeF]S(Propyl(3-OH))[NMeL]T[NBuGly][NMeF][NMeV]S(tBu)[NMeL]D-Piperidide; lactam N-11) | 0.69 | 
